Assay results from ChEMBL document CHEMBL5604063, “ASAP - DENV-2 NS2B-NS3 protease fluorescence dose response” (2024).
“And” between values parts separate entries of the source, which are not always exact repeats. Equal entries are not always repeated.

Key:
Genome polyprotein [1] = target: T1, Genome polyprotein (dengue virus type 2, UniProt P29990); type: functional, Thailand/16681/1984
Genome polyprotein [2] = target: T1, Genome polyprotein; type: functional, Thailand/16681/1984; remark: listed apart in the source

T1 sequence (P29990 1346-1475 limits assumed): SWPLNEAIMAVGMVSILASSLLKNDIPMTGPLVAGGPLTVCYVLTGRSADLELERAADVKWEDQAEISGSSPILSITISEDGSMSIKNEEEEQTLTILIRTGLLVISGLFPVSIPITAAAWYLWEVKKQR
T1 sequence (P29990 1476-2093 limits assumed): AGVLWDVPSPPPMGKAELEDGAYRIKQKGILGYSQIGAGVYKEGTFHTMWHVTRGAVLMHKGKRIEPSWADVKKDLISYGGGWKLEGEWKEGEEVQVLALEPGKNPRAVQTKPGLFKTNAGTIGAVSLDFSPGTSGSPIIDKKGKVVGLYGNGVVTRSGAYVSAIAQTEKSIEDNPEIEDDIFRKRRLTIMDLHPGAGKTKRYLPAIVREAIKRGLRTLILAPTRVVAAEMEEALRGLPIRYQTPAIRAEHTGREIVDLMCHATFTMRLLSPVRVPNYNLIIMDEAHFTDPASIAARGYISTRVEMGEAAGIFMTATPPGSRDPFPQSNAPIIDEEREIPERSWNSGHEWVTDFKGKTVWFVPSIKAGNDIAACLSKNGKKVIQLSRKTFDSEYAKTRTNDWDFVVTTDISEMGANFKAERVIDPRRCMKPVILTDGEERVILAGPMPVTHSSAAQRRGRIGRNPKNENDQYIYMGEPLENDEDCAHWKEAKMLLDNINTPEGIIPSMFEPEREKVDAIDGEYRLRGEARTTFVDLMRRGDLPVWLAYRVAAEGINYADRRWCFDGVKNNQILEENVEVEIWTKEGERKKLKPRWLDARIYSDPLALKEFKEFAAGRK

SMILES	IC50 (Genome polyprotein [1])	IC50 (Genome polyprotein [2])
NCc1cccc(NC(=O)c2cc(Cl)cc(C3CC3)c2)c1	> 100 µM	> 99.5 µM
O=C(Nc1ccc2c(c1)CNC2)c1cc(Cl)cc2[nH]c(-c3cnc(C4CC4)o3)nc12	19.4 µM	58.7 µM
O=C(Nc1ccc2c(c1)CNC2)c1ccc2c(c1)NCCO2	> 100 µM	> 99.5 µM
Cc1cc(Cl)cc(C(=O)Nc2cccc(CN)c2)n1	> 100 µM	> 99.5 µM
Cc1c(C(=O)Nc2cccc(-n3nn[nH]c3=O)c2)cc(C2CC2)n1C	> 100 µM	> 99.5 µM
O=C1Cc2c(cccc2C(=O)NC2(c3ncccc3F)CC2)N1	> 100 µM	> 99.5 µM
COCCN(C)Cc1ccnc(NC(=O)c2cc(C3CC3)n(C)c2C)c1	> 100 µM	> 99.5 µM
Cc1c(C(=O)Nc2cc(C(=O)Nc3cccnc3)ccn2)cc(C2CC2)n1C	> 100 µM	> 99.5 µM
O=C(Nc1ccc2c(c1)CCCN2)c1cc(Cl)cc2[nH]ncc12	> 100 µM	> 99.5 µM
CNC(=O)[C@H](Nc1cccc(-c2nn[nH]n2)c1)c1cc(Cl)cc2[nH]ncc12	> 100 µM	> 99.5 µM
NCc1cccc(NC(=O)c2cc(Cl)cc([C@H]3CCCCN3)c2)c1	> 100 µM	> 99.5 µM
O=C(Nc1cc(-c2cccnc2)ccn1)c1csc(C[C@H]2CCNC2)n1	> 100 µM	> 99.5 µM
O=C(Nc1cc(Cl)cc(C(=O)Nc2ccc([C@H]3CCNC3)cc2)c1)OCc1ccccc1	39.4 µM	19.5 µM and 24.6 µM
Cc1ccc(-c2nnn[nH]2)cc1NC(=O)c1cc(Cl)cc(NC(=O)OCc2ccccc2)c1	9.21 µM and 13.1 µM	18.4 µM
O=C(Nc1cc(Cl)cc(C(=O)Nc2cccc(Cc3nn[nH]n3)c2)c1)OCc1ccccc1	> 100 µM	22 µM
CC(C)CNC(=O)[C@H](Nc1ccc2c(c1)CNC2)c1cc(Cl)cc2[nH]ncc12	> 100 µM	> 99.5 µM
O=C(Nc1ccc2c(c1)CNC2)c1cc(Cl)nc2[nH]ncc12	> 100 µM	> 99.5 µM
Cc1nnc(SC[C@H]2CCCN2C(=O)Nc2ccc3c(c2)CNC3)s1	> 100 µM	> 99.5 µM
COc1ccc([C@H]2C[C@H](C)CN2C(=O)Nc2ccc3c(c2)CNC3)cc1	> 100 µM	> 99.5 µM
Cc1cc(C(=O)Nc2ccc3c(c2)CNC3)cc2nc[nH]c12	> 100 µM	> 99.5 µM
Cc1cc(CN)cc(NC(=O)c2cc(C3CC3)n(C)c2C)c1	> 100 µM	> 99.5 µM
O=C(N[C@H]1[C@H]2CCCCC[C@H]2[C@H]1C(=O)Nc1cccc(-n2nn[nH]c2=O)c1)OCc1ccccc1	37.9 µM and 54.6 µM	27.1 µM
NCc1cccc(NC(=O)[C@H](NC(=O)OCc2ccccc2)C2CCN(C(=O)Cc3ccccc3)CC2)c1	> 100 µM	> 99.5 µM

SMILES	IC50 (Genome polyprotein [1])	IC50 (Genome polyprotein [2])
O=C(Nc1ccc2c(c1)CNC2)c1cc(F)cc(-c2ccnc3c2CCO3)c1	> 100 µM	83.8 µM
Cc1cc(C(=O)Nc2cccc(CN)c2)cc(NC(=O)OCc2ccccc2)c1Cl	> 100 µM	55.4 µM
O=C(NC[C@H]1CCCO1)[C@H](Nc1ccc2c(c1)CNC2)c1cc(Cl)cc2[nH]ncc12	> 100 µM	> 99.5 µM
O=C(Nc1ccc2c(c1)CNC2)c1cc(Cl)cc2cn[nH]c12	> 100 µM	> 99.5 µM
CC(F)(F)c1cccc(NC(=O)c2cc(Cl)cc(NC(=O)OCc3ccccc3)c2)c1	> 100 µM	> 99.5 µM
Cn1cnc2nc(Cl)cc(C(=O)Nc3ccc4c(c3)CNC4)c21	> 100 µM	> 99.5 µM
O=C(NCC1CCOCC1)[C@H](Nc1ccc2c(c1)CNC2)c1cc(Cl)cc2[nH]ncc12	> 100 µM	> 99.5 µM
CNC(=O)[C@H](Nc1cc(CN)cc(C(=O)O)c1)c1cc(Cl)cc(C2CC2)c1	> 100 µM	> 99.5 µM
CN(C)C(=O)N1Cc2ccc(NC(=O)c3cc(Cl)cc4[nH]ncc34)cc2C1	> 100 µM	> 99.5 µM
CC[C@H](Cc1nnn[nH]1)c1ccc(NC(=O)c2cc(Cl)cc(Cl)c2OC)cc1	> 100 µM	> 99.5 µM
CCCN(C)CC(=O)N1CCC([C@@H](NC(=O)OCc2ccccc2)C(=O)Nc2cccc(CN)c2)CC1	> 100 µM	> 99.5 µM
Cc1ccc(NC(=O)c2cc(Cl)cc(NC(=O)OCc3ccccc3)c2)cc1CN	> 100 µM	> 99.5 µM and 95.8 µM
O=C(Nc1cc(Cl)cc([C@H](C#CCO)Nc2cccc(-c3nn[nH]n3)c2)c1)OCc1ccccc1	7.98 µM and 7.07 µM	13.6 µM and 12.9 µM
CCS(=O)(=O)c1ccc(Cl)cc1[C@H](Nc1ccc2c(c1)CNC2)C(=O)NCC(F)F	> 100 µM	> 99.5 µM
Cc1onc(C(=O)Nc2cccc(CN)c2)c1CN1CCCC1	> 100 µM	> 99.5 µM
Cn1nc(C2CC2)cc1C(=O)Nc1cc(CCCN)ccn1	> 100 µM	> 99.5 µM
C=C(C)c1cc(NC(=O)OCc2ccccc2)cc(C(=O)Nc2cccc(CN)c2)c1	> 100 µM	50.4 µM
Cc1c(C(=O)Nc2cc(CCCN)ccc2F)cc(C2CC2)n1C	> 100 µM	> 99.5 µM
CC(C)(C)NC(=O)[C@H](Nc1ccc2c(c1)CNC2)c1cc(Cl)cc2[nH]ncc12	> 100 µM	> 99.5 µM
C[C@H]1CN(C)C[C@H](C(=O)Nc2cccc(CN)c2)O1	> 100 µM	> 99.5 µM
CCNC(=O)Nc1cc(Cl)cc(C(=O)Nc2ccc3c(c2)CNCCO3)c1	> 100 µM	> 99.5 µM
CCCc1sc(C(=O)Nc2ccc3c(c2)CNC3)cc1CC	> 100 µM	> 99.5 µM
Cc1c(C(=O)Nc2cc(-c3ccccc3)ccn2)cc(C2CC2)n1C	> 100 µM	> 99.5 µM

SMILES	IC50 (Genome polyprotein [1])	IC50 (Genome polyprotein [2])
O=C(Nc1ccc2c(c1)CNCCC2)c1cc(Cl)cc2[nH]ncc12	62.4 µM and 45.8 µM	42.5 µM
O=C(Nc1cc(Cl)cc(C(=O)Nc2ccc(C3CNC3)cc2)c1)OCc1ccccc1	> 100 µM	39.2 µM
O=C(Nc1ccc2c(c1)CNC2)c1cccc2sccc12	> 100 µM	> 99.5 µM
O=C1Cc2c(cccc2C(=O)NC[C@H]2C[C@@H](n3cccn3)C2)N1	> 100 µM	> 99.5 µM
O=C1OCc2ccc(NC(=O)c3cccc4c3CNC4)cc21	> 100 µM	> 99.5 µM
O=C(Nc1cc(Cl)cc([C@H]2C[C@@H]2c2ccc3c(c2)CNC3)c1)OCc1ccccc1	> 100 µM	> 99.5 µM
COCC(=O)N1CCC([C@@H](NC(=O)OCc2ccccc2)C(=O)Nc2cccc(CN)c2)CC1	> 100 µM	> 99.5 µM
Cn1ncc(C(=O)Nc2cc(CCCN)ccn2)c1O	> 100 µM	> 99.5 µM
N#CCc1cccc(NC(=O)c2cc(Cl)cc(NC(=O)OCc3ccccc3)c2)c1	> 100 µM	> 99.5 µM
CC(=Cc1cccc(CN)c1)c1cc(Cl)cc(NC(=O)OCc2ccccc2)c1	> 100 µM	63.2 µM
Cc1ccc(NC(=O)c2cc(Cl)ccc2Cl)c(C(=O)Nc2cccc(CN)c2)c1	> 100 µM	> 99.5 µM
Cc1ccc(S(=O)(=O)N2CCC([C@@H](NC(=O)OCc3ccccc3)C(=O)Nc3cccc(CN)c3)CC2)c(C)c1	> 100 µM	> 99.5 µM
CC(C)(C)NC(=O)[C@H](Nc1ccc2c(c1)CNC2)c1cc(Cl)cc(C2CC2)c1	> 100 µM	> 99.5 µM
Cc1c(C(=O)Nc2n[nH]c3c2CNC3)cc(C2CC2)n1C	> 100 µM	> 99.5 µM
O=C(N[C@H]1[C@H]2CCCCC[C@H]2[C@H]1C(=O)Nc1cccc(C2CCNCC2)c1)OCc1ccccc1	32.7 µM	17.9 µM and 53 µM
NCc1cccc(NC(=O)[C@@H](NC(=O)OCc2ccccc2)C2CCN(Cc3ccncc3)CC2)c1	> 100 µM	> 99.5 µM
C=C(C)c1cccc([C@@H](NC(=O)OCc2ccccc2)C(=O)Nc2cccc(CN)c2)c1	> 100 µM	30.1 µM
NCc1ccc(C#CCO)c(NC(=O)c2cc(Cl)cc(NC(=O)OCc3ccccc3)c2)c1	> 100 µM	38 µM
Cc1nnsc1CN1CCC([C@@H](NC(=O)OCc2ccccc2)C(=O)Nc2cccc(CN)c2)CC1	> 100 µM	> 99.5 µM
O=C(Nc1ccc2c(c1)CNC2)c1ccc(OC(F)(F)F)cc1	> 100 µM	> 99.5 µM
Cn1c(=O)[nH]c2c(C(=O)Nc3ccc4c(c3)CNC4)cc(Br)cc21	42.8 µM and 34.9 µM	> 99.5 µM
Cc1c(C(=O)Nc2cccc([C@H]3CCNC3)c2)cc(C2CC2)n1C	> 100 µM	> 99.5 µM
